Measured values taken from patent US7803966B2, “Cosmetic and pharmaceutical compositions comprising compounds that display retinoid like activities” (Johnson & Johnson Consumer France, S.A.S., priority 2007, dated 2010).

Columns and labels:
Format in all cases: cell-based
IL8 [1] = assay: IL8 gene expression in human squamous carcinoma cells (QRT-PCR); conditions: for Effect on IL8 expression (48 h)vs control: vs untreated control
IL8 [2] = assay: IL8 gene expression in ex vivo human skin explant (QRT-PCR)
Method: (§1) Ex vivo skin explants were prepared from skin abdominal biopsy after plastic surgery. Skin explants were maintained in culture medium at 37° C. in a water saturated atmosphere for 5 days. […] After 48 hours, half of the explants were taken and epidermal mRNA was extracted and expression of HB-EGF and IL8 genes was measured by Quantitative real time PCR (QRT-PCR). Explants were also fixed and slices were prepared and mounted on glass slides to be examined. Cell proliferation was also assessed by staining the cells with an antibody directed to the Ki67 protein and then counting the number of positive cell per mm (Table 4).

HB-EGF [3] = assay: HB-EGF gene expression in ex vivo human skin explant (QRT-PCR)
Method: as §1

[4] = tested on: Ex vivo human skin explant; assay: Cell proliferation (Ki67 staining) in ex vivo human skin explant; conditions: 10^−3 M topical, Control 90, Vehicle 45
Method: Ex vivo skin explants were prepared from skin abdominal biopsy after plastic surgery. Skin explants were maintained in culture medium at 37° C. in a water saturated atmosphere for 5 days. Compounds G was diluted in a mixture of propylene glycol (30%) and ethanol (70%) at 10^-3 M and topically applied on the explant surface. After 48 hours, half of the explants were taken and epidermal mRNA was extracted and expression of HB-EGF and IL8 genes was measured by Quantitative real time PCR (QRT-PCR). Explants were also fixed and slices were prepared and mounted on glass slides to be examined. Cell proliferation was also assessed by staining the cells with an antibody directed to the Ki67 protein and then counting the number of positive cell per mm (Table 4).

HB-EGF [5] = assay: HB-EGF gene expression in human squamous carcinoma cells (QRT-PCR); conditions: vs untreated control
Method: Compound G was tested on Human Squamous Carcinoma Cells for its ability to induce epidermal proliferation factor HB-EGF. For this assay, Human squamous carcinoma cells were seeded in 25 cm^2 flask and cultivated until 80% of cell confluence was reached. Test compounds were added to the culture medium and cells were incubated again 48 hours. At the end of the incubation cells were trypsinized and pelleted. […] was extracted and gene expression was measured with quantitative real time Polymerase Chain Reaction (QRT-PCR) using actin gene expression as internal standard. Variation of gene expression is expressed in percent versus the untreated control. Effect of Compound G on HB-EGF gene expression, assessed by real time QPCR was +187% and +370% vs. control at doses of 10^−6 and 10^−5 M respectively.

For `O=C(O)COc1ccc(/N=N/c2c(O)ccc3cc(Br)ccc23)cc1` [Compound G], the “Effect on IL8 expression (48 h)vs control” value (IL8 [1]; 10^−5 M) was 44%, the “Effect on IL8 expression (48 h)vs control” value (IL8 [1]; 10^−6 M) was 10% and the “IL8 expression induction (in words)” value (IL8 [1]; "at this dose" (10^−6 and 10^−5 M), 48 h) was “did not significantly induce IL8 expression”. The “Effect on IL8 expression (48h)vs vehicle” value (IL8 [2]; 10^−3 M topical) was 76%, the “Effect on IL8 expression (48h)vs vehicle” value (IL8 [2]; 10^−4 M topical) was 65% and the “Effect on HB EGF expression (48 h) vs vehicle” value (HB-EGF [3]; 10^−3 M topical) was 288%. The “Effect on HB EGF expression (48 h) vs vehicle” value (HB-EGF [3]; 10^−4 M topical) was 159%, the “Cell proliferation (Ki67 + cells)” value [4] was 150 positive cell per mm and the “Effect on HB EGF expression vs control(48 h)” value (“Effect … vs control(48 h)” for short) (HB-EGF [5]; 10^−5 M) was 370%. For the same molecule, the “Effect … vs control(48 h)” value (HB-EGF [5]; 10^−5 M, listed as compound G) was 370%, the “Effect … vs control(48 h)” value (HB-EGF [5]; 10^−6 M) was 187% and the “Effect … vs control(48 h)” value (HB-EGF [5]; 10^−6 M, listed as compound G) was 187%.
